Reference: paper PMC4304288, “Function through bio-inspired, synthesis-informed design: step-economical syntheses of designed kinase inhibitors” (Organic Chemistry Frontiers, 2014)

Tested on: PKC (rat brain mixture)
Assay: PKC inhibition assay (protocol of Kikkawa, [γ-32P]ATP, histone)
Type: biochemical
Settings: rat brain mixture of PKC isoforms
Protocol: Our initial analogs were tested for inhibition of PKC[37],[38] (rat brain mixture) due to its clinical significance and our on-going and complementary work on PKC activators.[7b],[16],[26]
Simplified analog 19 was tested in the PKC inhibition assay using the rat brain mixture of PKC isoforms. […]. Computational docking[42] of the energy-minimized conformer of 19 in the computer-simulated ATP-binding pocket of PKCα (Fig. 3) illustrates the conserved hydrogen bonds between the maleimide and hinge region residues and the shape complementarity of the ligand with the pocket.
A PKC inhibition assay was performed following the protocol developed by Kikkawa and coworkers.5 The assay can be scaled as desired. Histone solution (0.33 mg/mL in 20 mM Tris buffer) was prepared from a stock solution (33 mg/mL, stored frozen). Phosphatidylserine (PS) vesicles were prepared by the addition of PS (10 mg/mL in chloroform, 240 µL) and dioleoylglycerol (10 mg/mL in ethanol, 40 µL) to a glass vial followed by removal of the chloroform under a stream of nitrogen. To the neat PS was added chilled 20 mM Tris assay buffer (2 mL) and the resulting mixture was sonicated (Branson Sonifier 250, power = 3, 30% duty cycle) four times for 30 sec with a 30 sec interval between sonications. The resulting milky suspension was stored on ice. "Stop" solution refers to a solution of 200 mM EDTA and 200 mM ATP in 20 mM Tris buffer.
Whatman filter papers were cut in 1 x 1 inches in dimension and labeled with tube number in pencil. An "Autogo" solution was prepared by mixing 27 µL of 3.75 mM ATP (in 20 mM Tris), 100 µL of 1.0 M MgCl2, 872 µL of 20 mM Tris buffer, and 1.3 µL of [γ-32P] ATP (total volume is 1 mL). "Autogo" solution should be kept in the hot hood all the time. "Cocktail 1" was prepared by mixing 70 µL of 10 mM Ca2+, 350 µL of 20 mM Tris, and 70 µL of histone solution (0.33 mg/mL in 20mM Tris). "Cocktail 2" was prepared by mixing 310 µL of 10 mM Ca2+, 930 µL of 20 mM Tris, 310 µL of the histone solution, and 310 µL of the PS solution (added only once the assay is ready to be run).
To each eppendorf tube, 10 µL of PKC solution and10 µL of the inhibitor solution were added. After addition of the inhibitor, each tube was vortexed. For negative controls, 70 µL of cocktail 1 was added to tubes 1 and 2. To the rest of the tubes were added 60 µL of cocktail 2. All the tubes were then transferred to the hot hood, and 20 µL of "Autogo" solution was added to each tube and vortexed immediately. A start countdown of 7 min was initiated when "Autogo" was added to the first tube. Addition to all the tubes should be completed within 7 min. When the countdown is over, "Stop" solution was added to each tube and vortexed. The interval between the addition of "Autogo" and "Stop" solution should be 7 min for each tube.
Contents of each tube was transferred to the piece of pre-labeled Whatman filter paper and the paper was washed by soaking them and swirling in a beaker filled with 300 mL of tap water. Once all the filter papers are soaked in the beaker, the supernatant was carefully drained (to the hot hood drain) and the papers were rinsed by soaking them in 300 mL of fresh tap water for 2 min. The water was decanted, and the papers were rinsed by soaking them in 300 mL of ethanol for 2 min. The ethanol should be recovered to a bottle in the hot hood (not to the drain). The papers were dried in the hot hood and each paper was transferred to a scintillation vial. The radiation was measured with the scintillation counter (Beckman LS 6000SC). The data set was analyzed using a least-square data-fitting algorithm in Prism 4 (Graphpad Software Inc.) to give an IC50 value (defined as the concentration of analogue required to inhibit 50% of PKC activity).

Row | IC50 [nM] | Structure (SMILES)
1 | 13 | CN(C)C1CCc2c(CC3CCNCC3)cc3c(c2CC1)C(=O)NC3=O (centres unmarked) [Compound 19]
2 | 1600 | CN(C)C1CCc2c3c(c4c5ccccc5n(CCCN)c4c2CC1)C(=O)NC3=O (centres unmarked) [Compound 14]
3 | 14100 | CNC1CCc2c3c(c4c5cc(Cl)ccc5n(CCCN)c4c2CC1)C(=O)NC3=O (centres unmarked) [Compound 12]
4 | 2900 | CN(C)C1CCc2c3c(c4c5cc(Cl)ccc5n(CCCN)c4c2CC1)C(=O)NC3=O (centres unmarked) [Compound 13]

Further lines, the molecule ahead of its results:

Row | Structure (SMILES) | IC50 [nM]
5 | NCCCn1c2ccc(Cl)cc2c2c3c(c4c(c21)CCC(N)CC4)C(=O)NC3=O (centres unmarked) [Compound 11] | 12500
6 | NCCCn1c2ccc(Cl)cc2c2c3c(c4c(c21)CCC(O)CC4)C(=O)NC3=O (centres unmarked) [Compound 10] | 2600

Tested on: PKCβ
Assay: not given
Settings: cited from earlier work

Row | Structure (SMILES) | selectivity for PKCβ over PKCα [fold]
7 | CN(C)C[C@@H]1CCn2cc(c3ccccc32)C2=C(C(=O)NC2=O)c2cn(c3ccccc23)CCO1 [ruboxistaurin] | 60
8 | Cn1cc(C2=C(c3cn(C4CCN(Cc5ccccn5)CC4)c4ccccc34)C(=O)NC2=O)c2ccccc21 [enzastaurin] | 26
